What was measured:
[1] = molecular target: T1, human CSNK1D (Homo sapiens, UniProt P48730); test: Whole Cell nBRET CSNK1D Binding Assay; conditions: living CHO cells stably expressing human CSNK1D tagged with nanoluciferase; NanoBret tracer 130 nM; 2 hours at 37 C
T1 construct: expressed in transfected cells

[2] = molecular target: T2, human recombinant GST cleaved CSNK1D (Homo sapiens, UniProt P48730); test: Purified Enzyme Assay (ADP-Glo CSNK1D Kinase Assay); format: biochemical; conditions: 2 nM CSNK1D; peptide substrate 150 μM; ATP 20 μM; 45 minutes at room temperature
T2 construct: GST (cleaved yes); purchased University of Dundee clone DU 19064
Outline: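 Percent activity derived from ADP-Glo quantification of ADP produced. Reactions: compound dose-response with human recombinant GST-cleaved CSNK1D, ATP and substrate peptide PLSRTL-pS-VASLPGL, incubated 45 min at room temperature.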

T1 sequence (P48730 whole entry): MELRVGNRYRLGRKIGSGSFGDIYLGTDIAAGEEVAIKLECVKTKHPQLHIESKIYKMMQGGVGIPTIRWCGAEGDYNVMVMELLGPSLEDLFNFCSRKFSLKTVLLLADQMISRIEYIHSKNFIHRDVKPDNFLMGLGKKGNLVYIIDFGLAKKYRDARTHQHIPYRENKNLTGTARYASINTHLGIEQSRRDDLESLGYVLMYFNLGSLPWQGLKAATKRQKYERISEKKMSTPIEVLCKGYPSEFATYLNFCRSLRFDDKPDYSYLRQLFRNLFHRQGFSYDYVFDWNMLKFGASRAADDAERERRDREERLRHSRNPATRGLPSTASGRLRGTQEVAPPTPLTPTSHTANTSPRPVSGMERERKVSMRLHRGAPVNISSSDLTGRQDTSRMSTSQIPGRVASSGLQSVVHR
T2 sequence (P48730 whole entry): as above

| SMILES | IC50 [1] [nM] | IC50 [2] [nM] |
| --- | --- | --- |
| CC[C@@H]1Cn2nc(-c3ccc(F)cn3)c(-c3ccnc4[nH]ncc34)c2CO1 (single isomer, unassigned) [Example 95, (*R)-6-Ethyl-2-(5-fluoropyridin-2-yl)-3-(1H-pyrazolo[3,4-b]pyridin-4-yl)-6,7-dihydro-4H-pyrazolo[5,1-c][1,4]oxazine] | 557 | 19 |
| Cc1cc(-c2c(-c3ccc(F)cc3)nn3c2CC2(C3)CC2(F)F)c2cn[nH]c2n1 (single isomer, unassigned) [Example 253, (*R)-1′.1′-Difluoro-2-(4-fluorophenyl)-3-(6-methyl-1H-pyrazolo[3,4-b]pyridin-4-yl)spiro[4,6-dihydropyrrolo[1,2-b]pyrazole-5,2′-cyclopropane]] | 279 | 21 |
| Fc1ccc(-c2nn3c(c2-c2ccnc4[nH]nc(Cl)c24)CC2(C3)CC2(F)F)nc1 (single isomer, unassigned) [Example 256, (*S)-3-(3-Chloro-1H-pyrazolo[3,4-b]pyridin-4-yl)-1′,1′-difluoro-2-(5-fluoro-2-pyridyl)spiro[4,6-dihydropyrrolo[1,2-b]pyrazole-5,2′-cyclopropane]] | 117 | 12 |
| Cc1cc(-c2c(-c3ccc(Cl)cc3)nn3c2COCC3)c2cn[nH]c2n1 [Example 68, 2-(4-Chlorophenyl)-3-(6-methyl-1H-pyrazolo[3,4-b]pyridin-4-yl)-6,7-dihydro-4H-pyrazolo[5,1-c][1,4]oxazine] | 206 | 27 |
| COCC1(F)CCc2c(-c3c(F)cnc4[nH]ncc34)c(-c3ccc(F)cn3)nn2C1 (single isomer, unassigned) [Example 303, (*R)-5-Fluoro-4-[6-fluoro-2-(5-fluoro-2-pyridyl)-6-(methoxymethyl)-5,7-dihydro-4H-pyrazolo[1,5-a]pyridin-3-yl]-1H-pyrazolo[3,4-b]pyridine] | 180 | 9 |
| Fc1ccc(-c2nn3c(c2-c2ccn4nccc4c2)CC[C@H]2[C@@H]3C2(F)F)cc1 (stereo in doubt) [Example 353, (5a*S,6a*R)-6,6-Difluoro-2-(4-fluorophenyl)-3-(pyrazolo[1,5-a]pyridin-4-yl)-5,5a,6,6a-tetrahydro-4H-cyclopropa[e]pyrazolo[1,5-a]pyridine] | 3830 | 1120 |
| COC[C@@]1(C)CCc2c(-c3cc(C)nc4[nH]ncc34)c(-c3ccc(F)cn3)nn2C1 (single isomer, unassigned) [Example 55, (*S)-4-(2-(5-Fluoropyridin-2-yl)-6-(methoxymethyl)-6-methyl-4,5,6,7-tetrahydropyrazolo[1,5-a]pyridin-3-yl)-6-methyl-1H-pyrazolo[3,4-b]pyridine] | 125 | 3 |
| [2H]C([2H])([2H])[C@@]1(C#N)CCc2c(-c3ccnc4[nH]ncc34)c(-c3ccc(F)cn3)nn2C1 (single isomer, unassigned) [Example 324, (*R)-2-(S-Fluoropyridin-2-yl)-6-(methyl-d3)-3-(1H-pyrazolo[3,4-b]pyridin-4-yl)-4,5,6,7-tetrahydropyrazolo[1,5-a]pyridine-6-carbonitrile] | 112 | 37 |
| Cc1cn2nccc2cc1-c1c(-c2ccc(F)cn2)nn2c1COC(C)(C)C2 [Example 382, 2-(5-Fluoro-2-pyridyl)-6,6-dimethyl-3-(6-methylpyrazolo[1,5-a]pyridin-5-yl)-4,7-dihydropyrazolo[5,1-c][1,4]oxazine] | > 10000 | 451 |
| Fc1ccc(-c2nn3c(c2-c2ccncc2)COCC3)cc1 [Example 369, 2-(4-Fluorophenyl)-3-(4-pyridyl)-6,7-dihydro-4H-pyrazolo[5,1-c][1,4]oxazine] | 96 | 12 |
| [2H]C([2H])([2H])[C@@]1(C(F)(F)F)Cn2nc(-c3ccc(F)cn3)c(-c3c(F)c(C)nc4[nH]nc(C)c34)c2CO1 (single isomer, unassigned) [Example 431, (*S)-3-(5-Fluoro-3,6-dimethyl-1H-pyrazolo[3,4-b]pyridin-4-yl)-2-(5-fluoropyridin-2-yl)-6-(methyl-d3)-6-(trifluoromethyl)-6,7-dihydro-4H-pyrazolo[5,1-c][1,4]oxazine] | > 10000 | 1580 |
| CC1(C)COc2c(-c3ccnc4ccsc34)c(-c3ccc(F)cn3)nn2C1 [Example 214, 2-(5-Fluoropyridin-2-yl)-6,6-dimethyl-3-(thieno[3,2-b]pyridin-7-yl)-6,7-dihydro-5H-pyrazolo[5,1-b][1,3]oxazine] | 75 | 9 |
| CC1(C)COCc2c(-c3ccnc4[nH]ncc34)c(-c3ccc(F)cn3)nn21 [Example 122, 2-(5-Fluoro-2-pyridyl)-7,7-dimethyl-3-(1H-pyrazolo[3,4-b]pyridin-4-yl)-4,6-dihydropyrazolo[5,1-c][1,4]oxazine] | 3410 | 120 |
| Fc1ccc(-c2nn3c(c2-c2ccnc4[nH]ncc24)COC2(C3)CC2(F)F)nc1 (single isomer, unassigned) [Example 433, (*R)-1′. 1′-Difluoro-2-(5-fluoro-2-pyridyl)-3-(1H-pyrazolo[3,4-b]pyridin-4-yl)spiro[4,7-dihydropyrazolo[5,1-c][1,4]oxazine-6,2′-cyclopropane]] | 79 | 4 |

Continued, values first:

| IC50 [1] [nM] | IC50 [2] [nM] | SMILES |
| --- | --- | --- |
| 13 | 2 | Fc1ccc(-c2nn3c(c2-c2ccnc4[nH]ncc24)CC2(CC2)C3)cc1 [Example 247, 2-(4-Fluorophenyl)-3-(1H-pyrazolo[3,4-b]pyridin-4-yl)spiro[4,6-dihydropyrrolo[1,2-b]pyrazole-5,1′-cyclopropane]] |
| 3 | 2 | Fc1ccc(-c2nn3c(c2-c2c(F)cnc4[nH]ncc24)OCC2(C3)CC2(F)F)cc1 (stereo not shown) [Example 471, 2,2-Difluoro-3′-(5-fluoro-1H-pyrazolo[3,4-b]pyridin-4-yl)-2′-(4-fluorophenyl)-5′H,7′H-spiro[cyclopropane-1,6′-pyrazolo[5,1-b][1,3]oxazine]] |
| 74 | 5 | Fc1ccc(-c2nn3c(c2-c2ccnc4[nH]ncc24)CC(F)(F)C3)cc1 [Example 230, 4-[5,5-Difluoro-2-(4-fluorophenyl)-4,6-dihydropyrrolo[1,2-b]pyrazol-3-yl]-1H-pyrazolo[3,4-b]pyridine] |
| 14 | 4 | CC1(C)Cn2nc(-c3ccc(F)cn3)c(-c3ccnc4[nH]nc(Cl)c34)c2CO1 [Example 388, 3-(3-Chloro-1H-pyrazolo[3,4-b]pyridin-4-yl)-2-(5-fluoropyridin-2-yl)-6,6-dimethyl-6,7-dihydro-4H-pyrazolo[5,1-c][1,4]oxazine] |
| 3 | 1 | Fc1ccc(-c2nn3c(c2-c2ccnc4[nH]ncc24)C[C@@H]2[C@H](C3)C2(F)F)cc1 (stereo in doubt) [Example 362, (4a*R,5a*R)-5,5-Difluoro-2-(4-fluorophenyl)-3-(1H-pyrazolo[3,4-b]pyridin-4-yl)-4a,5,5a,6-tetrahydro-4H-cyclopropa[d]pyrazolo[1,5-a]pyridine] |
| 29 | 3 | [2H]C([2H])([2H])C1(C([2H])([2H])[2H])Cn2nc(-c3ccc(F)cn3)c(-c3ccnc4[nH]nc(F)c34)c2CO1 [Example 398, 3-(3-Fluoro-1H-pyrazolo[3,4-b]pyridin-4-yl)-2-(5-fluoropyridin-2-yl)-6,6-bis(methyl-d3)-6,7-dihydro-4H-pyrazolo[5,1-c][1,4]oxazine] |
| 5 | < 0.5 | Cc1cc(-c2c(-c3ccc(F)cc3)nn3c2OC[C@@H](C)C3)c2cn[nH]c2n1 (single isomer, unassigned) [Example 193, (*S)-2-(4-Fluorophenyl)-6-methyl-3-(6-methyl-1H-pyrazolo[3,4-b]pyridin-4-yl)-6,7-dihydro-5H-pyrazolo[5,1-b][1,3]oxazine] |
| 7 | 1 | O=C(Nc1cc(-c2c(-c3ccc(F)cn3)nn3c2OCC2(CC2)C3)ccn1)C1CC1 [Example 456, N-(4-(2′-(5-Fluoropyridin-2-yl)-5′H,7′H-spiro[cyclopropane-1,6′-pyrazolo[5,1-b][1,3]oxazin]-3′-yl)pyridin-2-yl)cyclopropanecarboxamide] |
| 9 | 1 | Fc1ccc(-c2nn3c(c2-c2ccnc4[nH]ncc24)C2CC2C3)cc1 (racemic) [Example 275, (Racemic) 2-(4-Fluorophenyl)-3-(1H-pyrazolo[3,4-b]pyridin-4-yl)-3b,4,4a,5-tetrahydrocyclopropa[3,4]pyrrolo[1,2-b]pyrazole] |
| 26 | 6 | [2H]C([2H])([2H])C1(C([2H])([2H])[2H])Cn2nc(-c3ccc(F)cn3)c(-c3c(F)c(C)nc4[nH]nc(Cl)c34)c2CO1 [Example 408, 3-(3-Chloro-5-fluoro-6-methyl-1H-pyrazolo[3,4-b]pyridin-4-yl)-2-(5-fluoropyridin-2-yl)-6,6-bis(methyl-d3)-6,7-dihydro-4H-pyrazolo[5,1-c][1,4]oxazine] |
| 2 | 1 | Cc1cc(-c2c(-c3ccc(F)cc3)nn3c2C[C@H](F)C3)c2cn[nH]c2n1 [Example 12, (S)-4-(5-Fluoro-2-(4-fluorophenyl)-5,6-dihydro-4H-pyrrolo[1,2-b]pyrazol-3-yl)-6-methyl-1H-pyrazolo[3,4-b]pyridine] |
| 4 | 1 | Fc1ccc(-c2nn3c(c2-c2ccnc4[nH]ncc24)C[C@H](F)C3)cc1 [Example 11, (S)-4-(5-Fluoro-2-(4-fluorophenyl)-5,6-dihydro-4H-pyrrolo[1,2-b]pyrazol-3-yl)-1H-pyrazolo[3,4-b]pyridine] |
